Measurements as given in patent publication US6506747B1, “Substituted 1-(4-aminophenyl)pyrazoles and their use as anti-inflammatory agents” (Boehringer Ingelheim Pharmaceuticals, Inc., priority 1998, dated 2003).

System: not given
Assay: not given
Conditions: not given

Compared with O=C(Nc1ccc(-n2nc(C(F)(F)F)cc2C(F)(F)F)cc1)c1ccccc1 [Example 538], O=C(Nc1ccc(-n2nc(C(F)(F)F)cc2C(F)(F)F)cc1)c1cnc2ccccc2n1 [Example 712] is lower in melting point: 243 to 245 °C for the first, 196 °C for the second.

First: CC(=O)Nc1ccc(-n2nc(C(F)(F)F)cc2C(F)(F)F)cc1 [Example 547]
Second: CCNc1ccc(-n2nc(C(F)(F)F)cc2C(F)(F)F)cc1 [Example 613]
The melting point of the first is higher: 175 to 176 °C for the first, 54 °C for the second.

First: FC(F)(F)c1cc(C(F)(F)F)n(-c2ccc(NCc3ccc(Cl)cc3)cc2)n1 [Example 548]
Second: N#Cc1ccc(Nc2ccc(-n3nc(C(F)(F)F)cc3C(F)(F)F)cc2)cc1 [Example 864]
The melting point of the first is lower: 89 to 90 °C for the first, 247 °C for the second.

First: CCCCCC(=O)Nc1ccc(-n2nc(C(F)(F)F)cc2C(F)(F)F)cc1 [Example 584]
Second: O=C(Nc1ccc(-n2nc(C(F)(F)F)cc2C(F)(F)F)cc1)C1CCCNC1 (stereo not drawn) [Example 688]
The melting point of the first is lower: 107 to 109 °C for the first, 231 to 233 °C for the second.

First: FC(F)(F)c1cc(C(F)(F)F)n(-c2ccc(Nc3nc4ccccc4[nH]3)cc2)n1 [Example 644]
Second: FC(F)(F)c1cc(C(F)(F)F)n(-c2ccc(Nc3nccc4ccccc34)cc2)n1 [Example 648]
The melting point of the first is higher: 220 to 222 °C for the first, 205 to 220 °C for the second.

First: FC(F)(F)c1cc(Cl)n(-c2ccc(Nc3nccc4ccccc34)cc2)n1 [Example 683]
Second: O=C(Nc1ccc(-n2nc(C(F)(F)F)cc2C(F)(F)F)cc1)c1ccnc2ccccc12 [Example 711]
The melting point of the first is higher: 244 to 254 °C for the first, 204 to 205 °C for the second.

First: O=C(Nc1ccc(-n2nc(C(F)(F)F)cc2C(F)(F)F)cc1)c1cnccn1 [Example 698]
Second: FC(F)(F)c1cc(C(F)(F)F)n(-c2ccc(Nc3ccncn3)cc2)n1 [Example 886]
The melting point of the first is lower: 188 to 189 °C for the first, 218 to 219 °C for the second.

Compared with O=C(Nc1ccc(-n2nc(C(F)(F)F)cc2C(F)(F)F)cc1)N1CCOCC1 [Example 726], Cc1cc(C(F)(F)F)nn1-c1ccc(NC(=O)C2CCCC2)cc1 [Example 780] is lower in melting point: 185 to 186 °C for the first, 176 to 178 °C for the second.

Compared with CSc1cc(-c2ccco2)nn1-c1ccc(NC(=O)c2ccc(Cl)cc2)cc1 [Example 1077], C[S+]([O-])c1cc(-c2ccco2)nn1-c1ccc(NC(=O)c2ccc(Cl)cc2)cc1 (stereo not drawn) [Example 1101] is lower in melting point: 176 to 178 °C for the first, 110 °C for the second.

First: CN(C)Cc1cc(C(F)(F)F)n(-c2ccc(NC(=O)c3ccc(Cl)cc3)cc2)n1 [Example 1128]
Second: CCc1cc(C(F)(F)F)nn1-c1ccc(NC(=O)c2c(C)ncn2C)cc1 [Example 1207]
The melting point of the first is lower: 177 to 178 °C for the first, 179 to 182 °C for the second.

First: CCc1cc(C(C)C)nn1-c1ccc(Nc2ncccc2C#N)cc1 [Example 1160]
Second: CCc1cc(C(C)C)nn1-c1ccc(NC(=O)c2cnccn2)cc1 [Example 1312]
The melting point of the first is lower: 123 to 124 °C for the first, 169 to 171 °C for the second.

First: CCc1cc(C(C)C)nn1-c1ccc(NC(=O)c2c(C)noc2C)cc1 [Example 1200]
Second: CCc1cc(C(C)C)nn1-c1ccc(NCc2c(C)noc2C)cc1 [Example 1201]
The melting point of the first is higher: 173 to 175 °C for the first, 87 to 88 °C for the second.

First: CCc1cc(C(F)(F)F)nn1-c1ccc(NCc2sccc2C)cc1 [Example 1247]
Second: CCc1cc(C(F)(F)F)nn1-c1ccc(NCc2ccc(C)s2)cc1 [Example 1248]
The melting point of the first is higher: 93 to 95 °C for the first, 87 to 89 °C for the second.

System: IL-2 promoter/enhancer
Assay: IL-2 promoter assay (luciferase reporter in Jurkat J.1F/C6 cells)
Format: cell-based
Conditions: Homo sapiens; J.1F/C6 Jurkat cell line, IL-2 promoter luciferase reporter; read-out: IC50, inhibition of luciferase activity induced by ionomycin and PMA
From the text: The IL-2 promoter assay measures transcriptional activation of a luciferase reporter gene which has been placed under control of the IL-2 promoter/enhancer. All the known regulatory features of the IL2gene are contained within a 300 bp sequence immediately upstream of the open reading frame. The region −328 to +35 relative to the transcription start site of the IL-2 gene is obtained by RT-PCR of human genomic DNA and is subcloned into the promoterless luciferase reporter vector pGL2-Basic (Promega). The resulting construct, pIL2P-luc, and a vector containing a neomycin resistance gene, pcDNA/Neo (Invitrogen), are linearized and stably transfected into Jurkat cells (a human T cell line) by electroporation. […] For screening compounds, the cells are pelleted by centrifugation, washed once with PBS, resuspended in RPMI (phenol red-free) containing 5% FBS, and dispensed into 96-well, white microtiter plates (Packard) at 50,000 cells/well. The cells are pre-incubated with compounds (1 μg/ml) for 15 min prior to addition of ionomycin (1 μg/ml) and PMA (10 ng/ml) in a final volume of 100 μl. Following a 5 hr incubation at 37° C. in a humidified incubator, 100 μl of Luc-Lite lysis buffer/luciferase assay buffer (Promega) is added and luminescence measured using a Packard TopCount scintillation counter/luminometer.

For C=CC[C@@H]1/C=C(\C)C[C@H](C)C[C@H](OC)[C@H]2O[C@@](O)(C(=O)C(=O)N3CCCC[C@H]3C(=O)O[C@H](/C(C)=C/[C@@H]3CC[C@@H](O)[C@H](OC)C3)[C@H](C)[C@@H](O)CC1=O)[C@H](C)C[C@@H]2OC [FK506], the IC50 was 0.3 nM.
